A short description of the data set: SSSP-MS/MS spot sampling of whole-body thin tissue sections of a propranolol dosed mouse. The data set is classed as in vivo. Particulars: male CD-1 mouse, propranolol 7.5 mg/kg i.v., sacrificed 60 min post-dose, 40 μm section, ESI+. The protocol: At 60 min post-dose, mice were euthanized with an isoflurane overdose and immediately frozen in dry ice/hexane. The frozen mice were embedded/blocked in 2% aqueous carboxymethyl cellulose. Sagittal whole-body cryosections (40 μm thick) were prepared using a Leica CM3600 cryomacrotome and collected onto adhesive tape (8″×3″, 810 Scotch® Brand Magic™ Tape, 3M) then freeze-dried within the chamber of the cryomacrotome. Prior to analysis using the SSSP, tissue sections were stored in a desiccator at room temperature. Color images of the tissue sections were acquired using a HP Scanjet 4370 flat-bed scanner (Hewlett-Packard, Palo Alto, Calif., USA).
The inlet and outlet of the SSSP (“TLC-MS interface”, CAMAG, Muttenz, Switzerland) were coupled to an ACQUITY UltraPerformance Liquid Chromatography (UPLC) system (Waters Corporation, Manchester, UK) and to a 4000 QTRAP® mass spectrometer (MDS SCIEX, Concord, Ontario, Canada), respectively (see FIG. S1 in the Supplemental section). The gas pressure applied via a piston to the plunger of the SSSP interface was about 5 bar. The flow rate of the extraction solvent was 200 μL/min in all cases. For positive ion mode ESI, the emitter voltage was 5 kV and the turbo sprayer heater temperature was 300° C. For positive ion mode APCI, heated nebulizer probe temperature and needle current were 350° C. and 5 μA, respectively.
The extraction solvent flow paths and the individual steps of the surface sampling process with the SSSP are illustrated in FIGS. 3A-3E and 4A-4E. The solvent inlet capillary to the SSSP was connected to the UPLC pump, while the outlet capillary was connected to the ion source (ESI or APCI) of the mass spectrometer. At the beginning of a surface sampling experiment, a sample was positioned under the SSSP plunger while the extraction solvent flowed from the UPLC through a loop into the ion source (as in FIGS. 3A and 4A). Next, the SSSP stainless steel plunger, with 4-mm-diameter disk shape cutting edge, was lowered to seal the sampling area by cutting into and compressing the sample substrate (paper or adhesive tape in this case) (as in FIGS. 3B and 4B). By switching the valve from standby to extraction mode, the solvent previously being pumped directly to the ion source was diverted to the surface, where it extracted the analyte, and any other soluble components, and carried them into the ion source (FIGS. 3C and 4C). After a suitable extraction time (typically 60 seconds), the valve was switched back to direct the extraction solvent from the UPLC through the loop into the ion source (FIGS. 3D and 4D). […] In the final step of the surface sampling process, the plunger was raised up from the surface (FIGS. 3E and 4E) and then a cleaning station was positioned under the probe. Here, using push button control, the sampling face of the plunger was cleaned of accumulated particulate material using a stream of pressurized nitrogen. In the case of the tissue sections on tape, the probe actually cut out a section from the sample which stayed with the probe until removed by this gas jet cleaning. […] This washed the SSSP plunger face and tubing from the plunger to the valve and on into the ion source. Given 15 or 30 s to position the probe for analysis of a DBS or tissue sample spot, respectively, a 60 second extraction time and 60 s wash time to eliminate carryover, spot-to-spot analysis time was either […].
The tissue section was collected onto an adhesive tape substrate, which is a common format to collect whole-body tissue sections for WBA analyses.

As to `CC(C)NCC(O)COc1cccc2ccccc12` (stereo not drawn) [propranolol, reference compound], the “SRM signal in brain (spot 2)” value is listed as “High”.

hydroxypropranolol glucuronide: the “SRM signal in brain (spot 2)” value was “not detected”, the “SRM signal in heart (spot 5)” value is given as “Much lower”, the “SRM signal in kidney (spot 3)” value is “highest” and the “SRM signal in liver (spot 1)” value is recorded as “highest”. In addition, the “SRM signal in lung (spot 6)” value was “Much lower”.

(Values after US20110269166A1, “SEALING SURFACE SAMPLING PROBE APPLIED TO BLOOD SPOTS AND TISSUES” (UT-BATTELLE, LLC, priority 2010, published 2011).)
